Data published in patent US4843085A, “Pyridine derivatives, process for production thereof and pharmaceutical compositions useful as anti-arhytmics” (Yamanouchi Pharmaceutical Co., Ltd., priority 1987, dated 1989).
Where a name gives a salt, the structure may show the parent alone.

Tested on: corneal reflex responses
Assay: Local anesthetic activity (corneal reflex responses)
Format: in vivo, guinea-pigs (male Hartley strain)
Conditions: instilled into the cornea, guinea-pigs
Procedure: Solutions of the compounds were instilled into the cornea, and the corneal reflex responses were determined.

First: COC(=O)c1c(C)nc(C)c(C(=O)OC)c1-c1cc([N+](=O)[O-])ccc1OCCCCNC[C@H](O)COc1ccccc1.O=C(O)C(=O)O.O=C(O)C(=O)O [Example 1, Dimethyl 4-[2-[4-[[(S)-2-hydroxy-3-phenoxypropyl]amino]butoxy]-5-nitrophenyl]-2,6-dimethylpyridine-3,5dicarboxylate dioxalate]
Second: COC(=O)c1c(C)nc(C)c(C(=O)OC)c1-c1cc([N+](=O)[O-])ccc1OCCCCNC[C@@H](O)COc1ccccc1 [Example 2, Dimethyl 4-[2-[4-[[(R)-2-hydroxy-3-phenoxypropyl]amino]butoxy]-5-nitrophenyl]-2,6-dimethylpyridine-3,5-dicarboxylate oxalate]
The “ED50 (concentration required to inhibit corneal reflex responses by 50%)” value of the first is higher: 0.49% for the first, 0.32% for the second.

With `CCN(CC)CC(=O)Nc1c(C)cccc1C` [Lidocaine, reference compound] the “ED50 (concentration required to inhibit corneal reflex responses by 50%)” value was 0.82%.
